From patent US20070249555A1, “Use of Atp Analogues for Treatment of Cardiovascular Diseases” (INSTITUT NATIONAL DE LA SANTE ET DE LA RECHERCHE MEDICALE …, priority 2004, published 2007) come the findings set out here.

The target in one assay is human P2Y12 receptor (Homo sapiens, UniProt Q9H244). Description: forskolin-induced cAMP formation in hP2Y12-CHO-K1 cells. It is filed as cell-based. (cAMP levels reflect the balance of adenylyl cyclase and phosphodiesterase activity.)
In assay [1] the test system is liver of P2Y1-/- C57BL/6J mice. The experiment in a line: in situ TG-HDL2 endocytosis by perfused liver of P2Y1-/- mouse. It is filed as in vivo. The conditions noted are these: liver perfused in situ 10 min at 37° C., AR-C69931MX 10 μM. As to the method: FIG. 4C: The liver from P2Y1^−/−C57BL/6J male mice (25 weeks old) was perfused in situ for 10 minutes at 37° C. in HBSS medium with 75 μg/ml of ^125I-TG-HDL2 in the presence of PBS (a) or AR-C69931MX 10 μM (b). ^125I radioactivity associated with the livers was determined (n>3); (*) (p<0.05) (unpaired t-test).
The perfused mouse liver experiments were carried out on C57BL/6J male mice, 8 weeks old, (Charles River Cie) or P2Y1^−/− mouse, 25 weeks old. Mouse were anesthetized by intraperitoneal injections of 200 μl ketamine hydrochloride (Merial)-xylazine hydrochloride 2% (Bayer)-PBS (1:1:3 v/v). […] The livers were perfused in situ for 10 minutes at 37° C. in HBSS medium containing 75 μg/ml of ^125I-TG-HDL2 (5000 cpm/ng of proteins) or ^3H-cholesteryl-ether-TG-HDL2 (15000 dpm/mg of cholesteryl ester), with PBS apolipoprotein A-1 (ApoA-1, 10 μg/ml) or AR-C69931MX (10 μM).
Livers were extensively washed at 4° C. in PBS and radioactivity associated per […] of liver was counted, (n=7 per group). Values represent means ±SEM, with p<0.05 (unpaired t-test).

The next assay concerns plain CHO-K1 cells. Description: forskolin-induced cAMP accumulation in plain CHO-K1 cells (control). Type of assay: cell-based. As to conditions: untransfected control cells.
The target in a further assay is T1, human P2Y1 receptor (Homo sapiens, UniProt P47900).
T1 construct: host or cells: HepG2
The experiment in a line: TG-HDL2 internalization by HepG2 cells after P2Y1 receptor silencing by siRNA. Type of assay: cell-based. As to conditions: HepG2, pool of 4 P2Y1 siRNAs 100 nM, 48 h; apoA-I 10 μg/ml, ADP 100 nM, AR-C69931MX 100 nM. As to the method: HepG2 cells were transiently transfected with siRNA designated to human P2Y1 receptor (columns d, e, f, g) or with non specific siRNA as control (a, b, c). 48 hours later, cells were incubated for 10 minutes at 37° C. with 75 μg/ml ^125I-TG HDL2 without (control) or with apolipoprotein A-I 10 μg/ml (a and d), ADP 100 nM (b and e), AR-C69931MX 100 nM (c and f), PBS (g). Data are expressed as a percentage of internalized radioactivity with respect to the control value (set as 0) (n>5); (*) p<0.05 (unpaired t-test).
Internalization assays were performed as described in Guendouzi et al., (Biochemistry, 1998, 37: 14974-80) on HepG2 cells, obtained from the American Type Culture Collection ([…]). Cells were incubated for 10 minutes at 37° C. with 75 μg/ml of either ^125I-TG-HDL2, ^125I-HDL3 or ^125I-LDL. After washing and dissociation at 4° C. in phosphate buffered saline (PBS), cell radioactivity was determined using a Wallac 1261 multigamma apparatus.
The silencing of the different P2Y receptors were carried-out using the siRNA technique. The siRNA sequenced targeting human P2Y13 receptor (Gene Bank GB/EMBL/DDBJ accession number AF295368) was from position 406 or 359 relative to the start codon. The siRNA duplex (21-nt-RNAs) in deprotected and desalted form, the siRNA targeting human P2Y1 receptor (a mix of 4 siRNAs, M-005689), and the non-specific control siRNA (D-001206-01) were purchased from Dharmacon Inc. Subconfluent HepG2 cells were transiently transfected with siRNAs (final concentration, 100 nM) using Oligofectamine™ according to the manufacturer's protocole (Invitrogen). Cells were usually assayed 48 hours after transfection. Specific silencing effect was confirmed by at least three independent experiments.
Results are expressed as a percentage of internalization with respect to the control value (set at 0). Control corresponded to a basal value of internalization, amounting to 400 ng, 300 ng, 200 ng of TG-HDL2, HDL3 and LDL per mg of cells protein respectively for 10 minutes. […]

T1 sequence (P47900 whole entry): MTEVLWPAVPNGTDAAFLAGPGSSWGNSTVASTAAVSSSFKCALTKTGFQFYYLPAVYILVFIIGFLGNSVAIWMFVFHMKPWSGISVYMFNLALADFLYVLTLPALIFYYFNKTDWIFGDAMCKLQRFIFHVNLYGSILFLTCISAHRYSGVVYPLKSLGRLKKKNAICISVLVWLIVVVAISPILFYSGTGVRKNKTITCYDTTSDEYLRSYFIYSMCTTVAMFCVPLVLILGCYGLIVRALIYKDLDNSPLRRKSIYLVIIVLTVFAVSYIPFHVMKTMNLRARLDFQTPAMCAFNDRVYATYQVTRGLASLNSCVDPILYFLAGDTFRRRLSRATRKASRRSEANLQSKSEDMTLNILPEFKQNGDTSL
human P2Y12 receptor, sequence (Q9H244 whole entry, the tested form may be a part): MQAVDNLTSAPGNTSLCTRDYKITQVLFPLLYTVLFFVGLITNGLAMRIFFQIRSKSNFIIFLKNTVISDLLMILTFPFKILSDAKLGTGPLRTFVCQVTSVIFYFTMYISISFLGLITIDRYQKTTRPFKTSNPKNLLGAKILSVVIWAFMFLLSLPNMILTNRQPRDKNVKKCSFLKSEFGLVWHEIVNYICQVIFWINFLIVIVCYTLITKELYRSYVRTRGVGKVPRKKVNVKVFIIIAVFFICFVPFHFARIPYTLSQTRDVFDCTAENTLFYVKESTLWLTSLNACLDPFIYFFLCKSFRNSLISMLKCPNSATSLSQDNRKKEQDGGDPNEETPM
Description for human P2Y12 receptor: FIG. 2C: Effect ADP (▴), AR-C69931MX (●) and ADP in presence of AR-C69931MX (100 nM) (▪) on forskolin (FSK: 3 μM)-induced cAMP formation in hP2Y12-CHO-K1 cells. The cells were incubated with various concentrations of these agents for 12 min. Data are expressed in % of the value with forskolin alone and presented as mean ±S.E.M. of 3 (ADP) or 2 (AR-C69931MX) independent experiments, each performed in triplicates.
The cyclic AMP assays was performed on CHO-K1 cell lines expressing recombinant P2Y receptors as follows.
The plasmid of human P2Y12 receptor (hP2Y12-pEFIN5) was obtained from Euroscreen (Gosselies, Belgium) and was stably transfected into CHO-K1 cells by using the FuGENETM6 transfection reagent (Roche Applied Science, Mannheim, Germany). Transfected cells were selected using G418 (400 μg/ml). The hP2Y13-CHO-K1 and HP2Y12-CHO-K1 cells were grown in Ham'S F12 cell culture medium (Invitrogen-France) supplemented with fetal bovine serum (10%, v/v), penicillin (100 units/ml), streptomycin (100 μg/ml) and G418 (400 μg/ml).
The stably transfected CHO-K1 cells (200,000 cells/dish) were seeded on 35-mm diameter cell culture dishes in complete medium one day before the experiment. […] Cyclic AMP was quantified by 125l radioimmunoassay, as described in Communi et al., J Biol Chem, 2001, 276: 41479-85.

`CSCCNc1nc(SCCC(F)(F)F)nc2c1ncn2[C@@H]1O[C@H](COP(=O)(O)OP(=O)(O)C(Cl)(Cl)P(=O)(O)O)[C@@H](O)[C@H]1O` [AR-C69931MX, N-[2-(methylthio)ethyl]-2-[(3,3,3-trifluoropropyl)thio]-5′-adenylic acid, monoanhydride with dichloromethylenebisphosphonic acid]: the “effect on ADP inhibition of cAMP accumulation” value at human P2Y12 receptor (AR-C69931MX 100 nM with ADP) was “shifted the ADP inhibition to higher concentrations”. In addition, the “effect per se on cAMP accumulation by forskolin” value on human P2Y12 receptor (forskolin 3 μM, 12 min) is listed as “no effect”. Moreover, in assay [1], the “increase of TG-HDL2 internalization by the liver above the control” value is 38%. Besides, the “effect on cAMP accumulation in plain CHO-K1 cells” value in the assay on plain CHO-K1 cells was “no effect”. At human P2Y1 receptor, the “effect of P2Y1 receptors silencing on the stimulation of TG-HDL2 endocytosis” value is “no effect”.

Regarding `Nc1ncnc2c1ncn2[C@@H]1O[C@H](COP(=O)(O)OP(=O)(O)O)[C@@H](O)[C@H]1O` [ADP, adenosine diphosphate, reference compound], the “effect of P2Y1 receptors silencing on the stimulation of TG-HDL2 endocytosis” value at human P2Y1 receptor is “no effect”.
